One assay deals with T1, NET (Rattus norvegicus, UniProt Q9WTR4).
T1 construct: The protocol employed partially purified rat brain cortical homogenates; from tissue; host or cells: rat brain cortex homogenate
The assay is described as follows: NET competitive binding assay with [3H]nisoxetine, rat brain cortical homogenates. The settings on record: partially purified rat brain cortical homogenates, 0° C., 4 h, Ki derived from IC50. How it is done: The protocol employed partially purified rat brain cortical homogenates, [^3H]nisoxetine, incubated 0° C., 4 h; with nonspecific binding determined with added 1 microM of desipramine (DMI) and desipramine as the parallel positive control.

A further assay addresses SERT (Rattus norvegicus, UniProt P31652). The assay is described as follows: SERT competitive binding, [3H]Citalopram. Particulars: partially purified rat protein, nonspecific Clomipramine, 25° C., 1 h, read-out: Ki of (±)-14, SERT. An excerpt:
(§1) The evaluation of the competitive binding affinities (Ki values) of (±)-14 for the serotonin and dopamine transporter proteins (SERT and DAT, respectively), the beta-adrenergic receptor, and also serotonin 1a and 2a receptors has been made. The competitive binding profiles of (±)-14 at these other CNS sites are summarized in Table 2, where the assay conditions are defined. […] Thus, compound (±)-14 is considered to have potent NET selectivity (Table 1, Example X) relative to the potencies at the other sites as defined per Table 2.

The target in a further assay is DAT (Rattus norvegicus, UniProt P23977). In words: DAT competitive binding, [3H]B-CFT. Particulars: partially purified rat protein, nonspecific GBR-12,909, 0° C., 2 h, read-out: Ki of (±)-14, DAT.
Chain of DAT (P23977 whole entry): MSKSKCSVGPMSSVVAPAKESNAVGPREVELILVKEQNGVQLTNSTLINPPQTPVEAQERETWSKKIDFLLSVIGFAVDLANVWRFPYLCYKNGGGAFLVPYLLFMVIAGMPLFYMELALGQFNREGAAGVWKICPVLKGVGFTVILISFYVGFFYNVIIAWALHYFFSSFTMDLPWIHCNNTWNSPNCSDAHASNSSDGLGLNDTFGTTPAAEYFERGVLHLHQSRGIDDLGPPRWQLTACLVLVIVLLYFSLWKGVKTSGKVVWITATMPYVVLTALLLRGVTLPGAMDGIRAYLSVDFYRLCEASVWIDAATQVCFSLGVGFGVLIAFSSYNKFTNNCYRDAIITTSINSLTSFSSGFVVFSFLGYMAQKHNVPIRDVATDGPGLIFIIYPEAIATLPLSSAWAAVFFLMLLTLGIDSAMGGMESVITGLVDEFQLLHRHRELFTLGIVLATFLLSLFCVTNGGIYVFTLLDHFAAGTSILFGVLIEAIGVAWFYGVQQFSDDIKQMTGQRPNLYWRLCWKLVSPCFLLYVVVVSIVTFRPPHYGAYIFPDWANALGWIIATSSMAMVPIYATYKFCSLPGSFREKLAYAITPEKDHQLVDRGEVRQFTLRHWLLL
Source text: as §1

The target in a further assay is T2, 5-HT1A (Homo sapiens, UniProt P08908).
T2 sequence (P08908 1-422): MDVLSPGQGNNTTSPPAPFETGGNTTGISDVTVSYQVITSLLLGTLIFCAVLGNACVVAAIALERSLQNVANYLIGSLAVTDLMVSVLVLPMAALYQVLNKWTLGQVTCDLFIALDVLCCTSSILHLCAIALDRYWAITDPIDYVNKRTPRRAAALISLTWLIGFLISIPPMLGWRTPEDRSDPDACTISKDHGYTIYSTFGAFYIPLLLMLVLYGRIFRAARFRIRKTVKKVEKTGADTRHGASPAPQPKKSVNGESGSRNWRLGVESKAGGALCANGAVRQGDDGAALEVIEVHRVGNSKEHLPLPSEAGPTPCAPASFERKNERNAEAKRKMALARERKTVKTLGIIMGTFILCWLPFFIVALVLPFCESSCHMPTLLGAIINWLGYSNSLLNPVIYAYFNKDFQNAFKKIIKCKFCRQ
The assay is described as follows: 5-HT1A receptor competitive binding, [3H]8-OH-DPAT. The settings on record: partially purified human protein expressed in CHO cells, nonspecific 5-HT, 30° C., 0.5 h, read-out: Ki of (±)-14, 5-HT1A.
Source text: as §1

The target of a further assay is 5-HT2A (Homo sapiens, UniProt P28223). The assay is described as follows: 5-HT2A receptor competitive binding, [3H]Ketanserin. The settings on record: partially purified human protein expressed in CHO cells, nonspecific Mianserin, 30° C., 0.5 h, read-out: Ki of (±)-14, 5-HT2A.
Chain of 5-HT2A (P28223 whole entry): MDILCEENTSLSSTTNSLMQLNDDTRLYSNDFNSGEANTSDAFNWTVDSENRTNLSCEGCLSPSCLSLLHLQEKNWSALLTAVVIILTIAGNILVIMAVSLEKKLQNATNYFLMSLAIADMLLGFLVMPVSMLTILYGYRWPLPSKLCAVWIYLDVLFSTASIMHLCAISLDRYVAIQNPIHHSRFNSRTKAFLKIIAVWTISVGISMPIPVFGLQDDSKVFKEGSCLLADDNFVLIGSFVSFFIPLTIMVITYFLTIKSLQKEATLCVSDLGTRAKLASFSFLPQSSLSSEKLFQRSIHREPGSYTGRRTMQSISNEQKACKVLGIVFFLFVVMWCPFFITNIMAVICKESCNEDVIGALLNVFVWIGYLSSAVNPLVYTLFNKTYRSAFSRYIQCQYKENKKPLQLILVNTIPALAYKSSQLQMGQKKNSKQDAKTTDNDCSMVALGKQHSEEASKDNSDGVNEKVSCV
Source text: as §1

The structures appear in SMILES notation. pKi: −log10 of the molar value.

In general, pKi refers to the negative decadic logarithm of the Ki, by convention in mol/L.

T1 sequence (Q9WTR4 1-597): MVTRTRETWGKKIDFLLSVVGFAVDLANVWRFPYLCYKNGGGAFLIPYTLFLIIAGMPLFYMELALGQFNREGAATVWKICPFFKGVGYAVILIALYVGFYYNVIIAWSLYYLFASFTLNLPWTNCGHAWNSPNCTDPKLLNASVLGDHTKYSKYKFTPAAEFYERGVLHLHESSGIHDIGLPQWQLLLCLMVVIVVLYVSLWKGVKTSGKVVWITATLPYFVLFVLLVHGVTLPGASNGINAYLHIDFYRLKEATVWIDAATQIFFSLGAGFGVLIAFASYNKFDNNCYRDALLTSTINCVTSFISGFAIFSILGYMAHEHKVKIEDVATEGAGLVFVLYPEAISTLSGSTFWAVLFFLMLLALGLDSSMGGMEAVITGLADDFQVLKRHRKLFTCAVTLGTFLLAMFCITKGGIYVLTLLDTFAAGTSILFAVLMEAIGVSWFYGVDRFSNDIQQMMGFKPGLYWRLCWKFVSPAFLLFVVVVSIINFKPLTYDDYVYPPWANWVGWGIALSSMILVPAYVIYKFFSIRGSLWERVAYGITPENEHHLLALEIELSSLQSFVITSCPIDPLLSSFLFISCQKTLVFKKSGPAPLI
Chain of SERT (P31652 whole entry): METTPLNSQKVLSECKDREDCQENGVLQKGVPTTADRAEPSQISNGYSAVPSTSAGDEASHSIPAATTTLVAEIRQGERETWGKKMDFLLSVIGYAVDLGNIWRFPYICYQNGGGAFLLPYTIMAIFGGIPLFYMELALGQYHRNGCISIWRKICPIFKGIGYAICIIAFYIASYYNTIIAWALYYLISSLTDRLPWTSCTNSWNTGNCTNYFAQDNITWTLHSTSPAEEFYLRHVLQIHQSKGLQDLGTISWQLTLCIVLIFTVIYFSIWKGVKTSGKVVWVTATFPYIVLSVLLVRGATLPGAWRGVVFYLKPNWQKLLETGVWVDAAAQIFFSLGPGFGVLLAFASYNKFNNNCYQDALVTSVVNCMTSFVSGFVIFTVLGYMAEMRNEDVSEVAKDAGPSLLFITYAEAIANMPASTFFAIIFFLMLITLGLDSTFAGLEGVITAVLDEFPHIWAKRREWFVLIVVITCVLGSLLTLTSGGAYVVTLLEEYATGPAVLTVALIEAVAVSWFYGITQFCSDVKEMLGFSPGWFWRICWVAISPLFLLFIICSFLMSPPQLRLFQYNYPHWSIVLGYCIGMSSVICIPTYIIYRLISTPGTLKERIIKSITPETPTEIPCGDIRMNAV

As to `c1ccc(CC2CNCCN2c2nccc3ccccc23)cc1` (racemic) [Compound 9, (±)-1-[2′-(Benzyl)piperazin-1′-yl]isoquinoline], the pKi at NET is 7.79.
On the same count and under the same terms, the figure for `COCC1CNCCN1c1nc(Cl)cc2ccccc12` (racemic) [Compound 17, (±)-3-Chloro-1-[2′-(methoxymethyl)piperazin-1′-yl]isoquinoline] is 7.85.
On to `COCC1CNCCN1c1nccc2ccccc12` (racemic) [(±)-14, (±)-1-[2′-(Methoxymethyl)piperazin-1′-yl] isoquinoline], for which the pKi at NET was 8.38; on SERT, 5.75; at DAT, 5.80; on 5-HT1A it was less than 5.00; at 5-HT2A, less than 5.00.
For `FCCCOC[C@@H]1CNCCN1c1nccc2ccccc12` [(S)-37, (S)-1-[2′-[(3-fluoropropoxy)methyl]piperazin-1′-yl]isoquinoline], the pKi at NET was 8.17.
Turning to `FCCCOCC1CNCCN1c1nccc2ccccc12` (racemic) [(±)-37], the pKi at NET was 7.15.
